# Experimental data published in ChEMBL document CHEMBL4673372, “1,2,3-triazole-thiazole hybrids: Synthesis, in vitro antimicrobial activity and antibiofilm studies” (Bioorg Med Chem Lett, 2021).
# How the values were obtained:
# Staphylococcus aureus [1] = test: Inhibition of biofilm formation in Staphylococcus aureus […] incubated for 24 hrs by crystal violet staining based microtiter plate method; assay type: functional, organism-based
# Staphylococcus aureus [2] = test: Antibacterial activity against Staphylococcus aureus MLS16 MTCC 2940 assessed as inhibition of bacterial growth by microtiter broth dilution method; assay type: functional
# Micrococcus luteus [3] = test: Bactericidal activity against Micrococcus luteus MTCC 2470; assay type: functional
# [4] = Cytotoxicity against human THP-1 cells; assay type: cell-based
# Pichia sporocuriosa [5] = test: Antifungal activity against Issatchenkia hanoiensis MTCC 4755; assay type: functional
# Candida albicans [6] = test: Antifungal activity against Candida albicans MTCC 4748; assay type: functional
# Pichia sporocuriosa [7] = test: Fungicidal activity against Issatchenkia hanoiensis MTCC 4755; assay type: functional
# Candida albicans [8] = test: Antifungal activity against Candida albicans MTCC 3018; assay type: functional
# Staphylococcus aureus [9] = test: Inhibition of biofilm formation in Staphylococcus aureus MLS16 MTCC 2940 incubated for 24 hrs by crystal violet staining based microtiter plate method; assay type: functional, organism-based
# Candida parapsilosis [10] = test: Antifungal activity against Candida parapsilosis MTCC 1745; assay type: functional; conditions: Lodderomyces parapsilosis
# Pichia kudriavzevii [11] = test: Antifungal activity against Candida krusei MTCC 3020; assay type: functional
# Escherichia coli [12] = test: Bactericidal activity against Escherichia coli MTCC 739; assay type: functional
# Escherichia coli [13] = test: Inhibition of biofilm formation in Escherichia coli MTCC 739 incubated for 24 hrs by crystal violet staining based microtiter plate method; assay type: functional, organism-based
# Micrococcus luteus [14] = test: Antibacterial activity against Micrococcus luteus MTCC 2470 assessed as inhibition of bacterial growth by microtiter broth dilution method; assay type: functional
# Raoultella planticola [15] = test: Antibacterial activity against Klebsiella planticola MTCC 530 assessed as inhibition of bacterial growth by microtiter broth dilution method; assay type: functional
# Bacillus subtilis [16] = test: Bactericidal activity against Bacillus subtilis MTCC 121; assay type: functional
# Micrococcus luteus [17] = test: Inhibition of biofilm formation in Micrococcus luteus MTCC 2470 incubated for 24 hrs by crystal violet staining based microtiter plate method; assay type: functional, organism-based
# Staphylococcus aureus [18] = test: Bactericidal activity against Staphylococcus aureus MTCC 96; assay type: functional
# Pseudomonas aeruginosa [19] = test: Bactericidal activity against Pseudomonas aeruginosa MTCC 2453; assay type: functional
# Bacillus subtilis [20] = test: Inhibition of biofilm formation in Bacillus subtilis MTCC 121 incubated for 24 hrs by crystal violet staining based microtiter plate method; assay type: functional, organism-based
# [Candida] aaseri [21] = Antifungal activity against Candida aaseri MTCC 1962; assay type: functional; conditions: Yamadazyma aaseri
# [22] = Selectivity index, ratio of CC50 for human THP-1 cells to MIC for Staphylococcus aureus MTCC 96; assay type: toxicity
# Candida albicans [23] = test: Antifungal activity against Candida albicans MTCC 183; assay type: functional
# Candida albicans [24] = test: Antifungal activity against Candida albicans MTCC 227; assay type: functional
# THP-1 [25] = test: Cytotoxicity against human THP-1 cells assessed as reduction in cell viability at 200 uM by MTT assay; assay type: cell-based; conditions: thp-1, 200 µM
# Candida albicans [26] = test: Inhibition of biofilm formation in Candida albicans MTCC 3017 incubated for 24 hrs by crystal violet staining based microtiter plate method; assay type: functional, organism-based; conditions: Candida albicans, MTCC 3017, 24 h; read-out: IC50
# Bacillus subtilis [27] = test: Antibacterial activity against Bacillus subtilis MTCC 121 assessed as inhibition of bacterial growth by microtiter broth dilution method; assay type: functional
# Raoultella planticola [28] = test: Inhibition of biofilm formation in Klebsiella planticola MTCC 530 incubated for 24 hrs by crystal violet staining based microtiter plate method; assay type: functional, organism-based
# Staphylococcus aureus [29] = test: Bactericidal activity against Staphylococcus aureus MLS16 MTCC 2940; assay type: functional
# Pseudomonas aeruginosa [30] = test: Inhibition of biofilm formation in Pseudomonas aeruginosa MTCC 2453 incubated for 24 hrs by crystal violet staining based microtiter plate method; assay type: functional, organism-based
# Nakaseomyces glabratus [31] = test: Antifungal activity against Candida glabrata MTCC 3019; assay type: functional
# Candida albicans [32] = test: Antifungal activity against Candida albicans MTCC 854; assay type: functional
# Raoultella planticola [33] = test: Bactericidal activity against Klebsiella planticola MTCC 530; assay type: functional
# Candida albicans [34] = test: Antifungal activity against Candida albicans MTCC 1637; assay type: functional
# Escherichia coli [35] = test: Antibacterial activity against Escherichia coli MTCC 739 assessed as inhibition of bacterial growth by microtiter broth dilution method; assay type: functional
# THP-1 [36] = test: Cytotoxicity against human THP-1 cells assessed as cell damage at 200 uM by LDH assay; assay type: cell-based; conditions: thp-1, 200 µM
# Candida albicans [37] = test: Fungicidal activity against Candida albicans MTCC 183; assay type: functional
# Pseudomonas aeruginosa [38] = test: Antibacterial activity against Pseudomonas aeruginosa MTCC 2453 assessed as inhibition of bacterial growth by microtiter broth dilution method; assay type: functional
# Staphylococcus aureus [39] = test: Antibacterial activity against Staphylococcus aureus MTCC 96 assessed as inhibition of bacterial growth by microtiter broth dilution method; assay type: functional
# Candida albicans [40] = test: Antifungal activity against Candida albicans MTCC 3958; assay type: functional
# Candida parapsilosis [41] = test: Fungicidal activity against Candida parapsilosis MTCC 1745; assay type: functional; conditions: Lodderomyces parapsilosis
# Candida albicans [42] = test: Fungicidal activity against Candida albicans MTCC 4748; assay type: functional
# Candida albicans [43] = test: Fungicidal activity against Candida albicans MTCC 854; assay type: functional
# [Candida] aaseri [44] = Fungicidal activity against Candida aaseri MTCC 1962; assay type: functional; conditions: Yamadazyma aaseri
# Nakaseomyces glabratus [45] = test: Fungicidal activity against Candida glabrata MTCC 3019; assay type: functional
# Candida albicans [46] = test: Fungicidal activity against Candida albicans MTCC 3958; assay type: functional
# Candida albicans [47] = test: Fungicidal activity against Candida albicans MTCC 227; assay type: functional
# Candida albicans [48] = test: Fungicidal activity against Candida albicans MTCC 1637; assay type: functional
# Pichia kudriavzevii [49] = test: Fungicidal activity against Candida krusei MTCC 3020; assay type: functional
# Candida albicans [50] = test: Fungicidal activity against Candida albicans MTCC 3018; assay type: functional
# [51] = Staphylococcus aureus, MTCC 92, 24 h, read-out: IC50
# [52] = Escherichia coli, MTCC 739, 24 h, read-out: IC50
# [53] = Micrococcus luteus, MTCC 2470, 24 h, read-out: IC50
# [54] = Bacillus subtilis, MTCC 121, 24 h, read-out: IC50
# [55] = Klebsiella planticola, MTCC 530, 24 h, read-out: IC50
# [56] = Pseudomonas aeruginosa, MTCC 2453, 24 h, read-out: IC50
structure (smiles),measurement,setting,value
COc1ccc(-n2cc(COc3ccc(/C=N/Nc4nc(-c5cc6cccc(OC)c6oc5=O)cs4)cc3)nn2)cc1,IC50,Staphylococcus aureus [1]; [51],13.5 µM
same,MIC,Staphylococcus aureus [2],3.71 µM
same,MBC,Micrococcus luteus [3],13.4 µM
same,CC50,[4],34.5 µM
same,MIC,Pichia sporocuriosa [5],6.7 µM
same,MIC,Candida albicans [6],> 215 µM
same,MFC,Pichia sporocuriosa [7],13.4 µM
same,MIC,Candida albicans [8],> 215 µM
same,IC50,Staphylococcus aureus [9],Not Active
same,MIC,Candida parapsilosis [10],> 215 µM
same,MIC,Pichia kudriavzevii [11],> 215 µM
same,MBC,Escherichia coli [12],6.7 µM
same,IC50,Escherichia coli [13]; [52],68 µM
same,MIC,Micrococcus luteus [14],3.71 µM
same,MIC,Raoultella planticola [15],3.2 µM
same,MBC,Bacillus subtilis [16],13.4 µM
same,IC50,Micrococcus luteus [17]; [53],155 µM
same,MBC,Staphylococcus aureus [18],13.4 µM
same,MBC,Pseudomonas aeruginosa [19],28.8 µM
same,IC50,Bacillus subtilis [20]; [54],16.6 µM
same,MIC,[Candida] aaseri [21],> 215 µM
same,selectivity ratio,[22],9.28
same,MIC,Candida albicans [23],13.4 µM
same,MIC,Candida albicans [24],> 215 µM
same,Activity,THP-1 [25],Toxic
same,IC50,Candida albicans [26],35.6 µM
same,MIC,Bacillus subtilis [27],3.71 µM
same,IC50,Raoultella planticola [28]; [55],40.2 µM
same,MBC,Staphylococcus aureus [29],13.4 µM
same,IC50,Pseudomonas aeruginosa [30]; [56],47.3 µM
same,MIC,Nakaseomyces glabratus [31],> 215 µM
same,MIC,Candida albicans [32],> 215 µM
same,MBC,Raoultella planticola [33],6.7 µM
same,MIC,Candida albicans [34],> 215 µM
same,MIC,Escherichia coli [35],6.7 µM
same,Activity,THP-1 [36],Toxic
same,MFC,Candida albicans [37],26.9 µM
same,MIC,Pseudomonas aeruginosa [38],13.4 µM
same,MIC,Staphylococcus aureus [39],3.71 µM
same,MIC,Candida albicans [40],> 215 µM
Clc1ccc(COC(Cn2ccnc2)c2ccc(Cl)cc2Cl)c(Cl)c1 (stereo not given) [MICONAZOLE],MFC,Candida parapsilosis [41],18.7 µM
same,IC50,Staphylococcus aureus [1],Not Active
same,MFC,Candida albicans [42],18.7 µM
same,MFC,Candida albicans [43],18.7 µM
same,MIC,Pichia sporocuriosa [5],18.7 µM
same,MIC,Candida albicans [6],18.7 µM
same,MFC,[Candida] aaseri [44],18.7 µM
same,MFC,Pichia sporocuriosa [7],18.7 µM
same,MIC,Candida albicans [8],18.7 µM
same,IC50,Staphylococcus aureus [9],Not Active
same,MIC,Candida parapsilosis [10],18.7 µM
same,MIC,Pichia kudriavzevii [11],18.7 µM
same,IC50,Escherichia coli [13],Not Active
same,MFC,Nakaseomyces glabratus [45],18.7 µM
same,IC50,Micrococcus luteus [17],Not Active
same,IC50,Bacillus subtilis [20],Not Active
same,MIC,[Candida] aaseri [21],18.7 µM
same,MIC,Candida albicans [23],18.7 µM
same,MIC,Candida albicans [24],18.7 µM
same,IC50,Candida albicans [26],2.5 µM
same,MFC,Candida albicans [46],18.7 µM
same,IC50,Raoultella planticola [28],Not Active
same,IC50,Pseudomonas aeruginosa [30],Not Active
same,MIC,Nakaseomyces glabratus [31],18.7 µM
same,MIC,Candida albicans [32],18.7 µM
same,MFC,Candida albicans [47],18.7 µM
same,MFC,Candida albicans [48],18.7 µM
same,MIC,Candida albicans [34],18.7 µM
same,MFC,Candida albicans [37],18.7 µM
same,MFC,Pichia kudriavzevii [49],18.7 µM
same,MFC,Candida albicans [50],18.7 µM
same,MIC,Candida albicans [40],18.7 µM
COc1ccc(-n2cc(COc3ccc(/C=N/Nc4nc(-c5cc6cc(Br)cc(OC)c6oc5=O)cs4)cc3)nn2)cc1,IC50,Staphylococcus aureus [1]; [51],12 µM
same,MIC,Staphylococcus aureus [2],5.9 µM
same,MBC,Micrococcus luteus [3],11.8 µM
same,CC50,[4],30.3 µM
same,MIC,Pichia sporocuriosa [5],> 190 µM
same,MIC,Candida albicans [6],> 190 µM
same,MFC,[Candida] aaseri [44],11.8 µM
same,MIC,Candida albicans [8],5.9 µM
same,IC50,Staphylococcus aureus [9],Not Active
same,MIC,Candida parapsilosis [10],> 190 µM
same,MIC,Pichia kudriavzevii [11],> 190 µM
same,MBC,Escherichia coli [12],11.8 µM
same,IC50,Escherichia coli [13]; [52],21.9 µM
same,MIC,Micrococcus luteus [14],5.9 µM
same,MIC,Raoultella planticola [15],2.8 µM
same,MFC,Nakaseomyces glabratus [45],11.8 µM
same,MBC,Bacillus subtilis [16],11.8 µM
same,IC50,Micrococcus luteus [17]; [53],47.8 µM
same,MBC,Staphylococcus aureus [18],11.8 µM
same,MBC,Pseudomonas aeruginosa [19],11.8 µM
same,IC50,Bacillus subtilis [20]; [54],15.9 µM
same,MIC,[Candida] aaseri [21],5.9 µM
same,selectivity ratio,[22],5.14
same,MIC,Candida albicans [23],11.8 µM
same,MIC,Candida albicans [24],> 190 µM
same,Activity,THP-1 [25],Toxic
same,IC50,Candida albicans [26],40.6 µM
same,MIC,Bacillus subtilis [27],5.9 µM
same,IC50,Raoultella planticola [28]; [55],22.2 µM
same,MBC,Staphylococcus aureus [29],11.8 µM
same,IC50,Pseudomonas aeruginosa [30]; [56],24.7 µM
same,MIC,Nakaseomyces glabratus [31],5.9 µM
same,MIC,Candida albicans [32],> 190 µM
same,MBC,Raoultella planticola [33],5.9 µM
same,MFC,Candida albicans [48],11.8 µM
same,MIC,Candida albicans [34],5.9 µM
same,MIC,Escherichia coli [35],5.9 µM
same,Activity,THP-1 [36],Toxic
same,MFC,Candida albicans [37],23.7 µM
same,MIC,Pseudomonas aeruginosa [38],5.9 µM
same,MIC,Staphylococcus aureus [39],5.9 µM
same,MFC,Candida albicans [50],11.8 µM
same,MIC,Candida albicans [40],> 190 µM
